Test results: PubChem BioAssay (NCI)
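Results reflect a 48-hour exposure of cells in 96-well plates to compound at five concentrations. GI50 is the concentration that inhibits growth by half. TGI marks complete inhibition of growth.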

How the values were obtained:
Assay in all cases: DTP human tumour cell line panel, 48 h
[1] = system: HOP-92 NSCLC
[2] = system: DU-145 prostate
[3] = system: MOLT-4 leukemia
[4] = system: A549 NSCLC
[5] = system: MALME-3M melanoma
[6] = system: SK-OV-3 ovarian
[7] = system: SK-MEL-2 melanoma
[8] = system: CCRF-CEM leukemia
[9] = system: HL-60(TB) leukemia
[10] = system: UACC-62 melanoma
[11] = system: COLO 205 colon
[12] = system: ACHN renal
[13] = system: RPMI-8226 leukemia
[14] = system: SR leukemia
[15] = system: RXF 393 renal
[16] = system: M14 melanoma
[17] = system: SW-620 colon
[18] = system: NCI-H23 lung
[19] = system: NCI/ADR-RES ovarian
[20] = system: TK-10 renal
[21] = system: NCI-H522 lung
[22] = system: SF-539 CNS
[23] = system: UO-31 renal
[24] = system: LOX IMVI melanoma
[25] = system: K-562 leukemia
[26] = system: UACC-257 melanoma
[27] = system: SNB-75 CNS
[28] = system: SF-268 CNS
[29] = system: SK-MEL-5 melanoma
[30] = system: PC-3 prostate
[31] = system: KM12 colon
[32] = system: HS 578T breast
[33] = system: SNB-19 CNS
[34] = system: HCT-15 colon
[35] = system: HCT-116 colon
[36] = system: OVCAR-8 ovarian
[37] = system: BT-549 breast
[38] = system: SN12C renal
[39] = system: OVCAR-4 ovarian
[40] = system: NCI-H460 lung
[41] = system: T-47D breast
[42] = system: SF-295 CNS
[43] = system: HOP-62 NSCLC
[44] = system: IGROV1 ovarian
[45] = system: MCF7 breast
[46] = system: 786-0 renal
[47] = system: MDA-N
[48] = system: U251 CNS
[49] = system: SK-MEL-28 melanoma
[50] = system: MDA-MB-231 breast
[51] = system: EKVX NSCLC
[52] = system: NCI-H226 lung
[53] = system: MDA-MB-435
[54] = system: CAKI-1 renal
[55] = system: A498 renal
[56] = system: OVCAR-5 ovarian
[57] = system: HCC-2998 colon
[58] = system: OVCAR-3 ovarian
[59] = system: HT29 colon

Cc1ccc(S(=O)(=O)NC(=O)NC(CCCCN=C(N)N)C(=O)O)cc1 (stereo unspecified)
TGI [1]: > 100 µM | TGI [2]: > 100 µM | TGI [3]: > 100 µM | TGI [4]: > 100 µM | TGI [5]: > 100 µM | TGI [6]: > 100 µM | TGI [7]: > 100 µM | TGI [8]: > 100 µM | TGI [9]: > 100 µM | TGI [10]: > 100 µM | TGI [11]: > 100 µM | TGI [12]: > 100 µM | TGI [13]: > 100 µM | TGI [14]: > 100 µM | TGI [15]: > 100 µM | TGI [16]: > 100 µM | TGI [17]: > 100 µM | TGI [18]: > 100 µM | TGI [19]: > 100 µM | TGI [20]: > 100 µM | TGI [21]: > 100 µM | TGI [22]: > 100 µM | TGI [23]: > 100 µM | TGI [24]: > 100 µM | TGI [25]: > 100 µM | TGI [26]: > 100 µM | TGI [27]: > 100 µM | TGI [28]: > 100 µM | TGI [29]: > 100 µM | TGI [30]: > 100 µM | TGI [31]: > 100 µM | TGI [32]: > 100 µM | TGI [33]: > 100 µM | TGI [34]: > 100 µM | TGI [35]: > 100 µM | TGI [36]: > 100 µM | TGI [37]: > 100 µM | TGI [38]: > 100 µM | TGI [39]: > 100 µM | TGI [40]: > 100 µM | TGI [41]: > 100 µM | TGI [42]: > 100 µM | TGI [43]: > 100 µM | TGI [44]: > 100 µM | TGI [45]: > 100 µM | TGI [46]: > 100 µM | TGI [47]: > 100 µM | TGI [48]: > 100 µM | TGI [49]: > 100 µM | TGI [50]: > 100 µM

NS(=O)(=O)c1ccc(N=Nc2c(O)[nH]c3ccc(C(=O)NCc4ccncc4)cc23)cc1
GI50 [1]: > 25 µM | TGI [1]: > 25 µM | GI50 [2]: > 25 µM | TGI [2]: > 25 µM | GI50 [3]: > 25 µM | TGI [3]: > 25 µM | GI50 [4]: > 25 µM | TGI [4]: > 25 µM | GI50 [51]: > 25 µM | TGI [51]: > 25 µM | GI50 [5]: > 25 µM | TGI [5]: > 25 µM | GI50 [6]: > 25 µM | TGI [6]: > 25 µM | GI50 [7]: > 25 µM | TGI [7]: > 25 µM | GI50 [8]: > 25 µM | TGI [8]: > 25 µM | GI50 [9]: > 25 µM | TGI [9]: > 25 µM | GI50 [10]: > 25 µM | TGI [10]: > 25 µM | GI50 [11]: > 25 µM | TGI [11]: > 25 µM | GI50 [52]: > 25 µM | TGI [52]: > 25 µM | GI50 [12]: > 25 µM | TGI [12]: > 25 µM | GI50 [13]: > 25 µM | TGI [13]: > 25 µM | GI50 [14]: > 25 µM | TGI [14]: > 25 µM | GI50 [53]: > 25 µM | TGI [53]: > 25 µM | GI50 [15]: > 25 µM | TGI [15]: > 25 µM | GI50 [16]: > 25 µM | TGI [16]: > 25 µM | GI50 [17]: > 25 µM | TGI [17]: > 25 µM | GI50 [18]: > 25 µM | TGI [18]: > 25 µM | GI50 [19]: > 25 µM | TGI [19]: > 25 µM | GI50 [20]: > 25 µM | TGI [20]: > 25 µM | GI50 [21]: > 25 µM | TGI [21]: > 25 µM | GI50 [22]: > 25 µM | TGI [22]: > 25 µM | GI50 [23]: > 25 µM | TGI [23]: > 25 µM | GI50 [24]: > 25 µM | TGI [24]: > 25 µM | GI50 [25]: > 25 µM | TGI [25]: > 25 µM | GI50 [26]: > 25 µM | TGI [26]: > 25 µM | GI50 [27]: > 25 µM | TGI [27]: > 25 µM | GI50 [28]: > 25 µM | TGI [28]: > 25 µM | GI50 [29]: > 25 µM | TGI [29]: > 25 µM | GI50 [30]: > 25 µM | TGI [30]: > 25 µM | GI50 [31]: > 25 µM | TGI [31]: > 25 µM | GI50 [32]: > 25 µM | TGI [32]: > 25 µM | GI50 [33]: > 25 µM | TGI [33]: > 25 µM | GI50 [54]: > 25 µM | TGI [54]: > 25 µM | GI50 [34]: > 25 µM | TGI [34]: > 25 µM | GI50 [35]: > 25 µM | TGI [35]: > 25 µM | GI50 [36]: > 25 µM | TGI [36]: > 25 µM | GI50 [37]: > 9.38 µM | TGI [37]: > 25 µM | GI50 [38]: > 25 µM | TGI [38]: > 25 µM | GI50 [39]: > 25 µM | TGI [39]: > 25 µM | GI50 [40]: > 25 µM | TGI [40]: > 25 µM | GI50 [41]: > 25 µM | TGI [41]: > 25 µM | GI50 [55]: > 25 µM | TGI [55]: > 25 µM | GI50 [42]: > 25 µM | TGI [42]: > 25 µM | GI50 [43]: > 25 µM | TGI [43]: > 25 µM | GI50 [44]: > 25 µM | TGI [44]: > 25 µM | GI50 [45]: > 25 µM | TGI [45]: > 25 µM | GI50 [46]: > 25 µM | TGI [46]: > 25 µM | GI50 [56]: > 25 µM | TGI [56]: > 25 µM | GI50 [48]: > 25 µM | TGI [48]: > 25 µM | GI50 [57]: > 25 µM | TGI [57]: > 25 µM | GI50 [49]: > 25 µM | TGI [49]: > 25 µM | GI50 [50]: > 25 µM | TGI [50]: > 25 µM | GI50 [58]: > 25 µM | TGI [58]: > 25 µM | GI50 [59]: 24.6 µM | TGI [59]: > 25 µM
